We go through 4 compounds from ChEMBL document CHEMBL3871303, “In vivo and in silico anti-inflammatory mechanism of action of the semisynthetic (-)-cubebin derivatives (-)-hinokinin and (-)-O-benzylcubebin” (2017).

Holding throughout (format): functional
Assay [1] deals with Rattus norvegicus. Description: Antiinflammatory activity in Wistar rat assessed as inhibition of dextran-induced paw edema at 40 mg/kg, po administered 30 mins prior to dextran treatment measured after 3 hrs.
Assay [2] deals with Rattus norvegicus. The assay is described as follows: Antiinflammatory activity in Wistar rat assessed as inhibition of PGE2-induced paw edema at 40 mg/kg, po administered 30 mins prior to PGE2 treatment measured after 3 hrs.
In assay [3] the test system is Rattus norvegicus. Description: Antiinflammatory activity in Wistar rat assessed as inhibition of dextran-induced paw edema administered orally 30 mins prior to dextran treatment measured after 3 hrs.
Assay [4] concerns Rattus norvegicus. The assay is described as follows: Antiinflammatory activity in Wistar rat assessed as inhibition of PGE2-induced paw edema at 10 mg/kg, po administered 30 mins prior to PGE2 treatment measured after 3 hrs.

On to `O=C1OC[C@@H](Cc2ccc3c(c2)OCO3)[C@@H]1Cc1ccc2c(c1)OCO2`, for which the inhibition in vivo at 40 mg/kg in the assay with Rattus norvegicus [1] is 18.3%; in the assay on Rattus norvegicus [2] it was 59.2%.

In the case of `c1ccc(COC2OC[C@@H](Cc3ccc4c(c3)OCO4)[C@@H]2Cc2ccc3c(c2)OCO3)cc1` (stereo partly specified), the inhibition in vivo at 40 mg/kg with Rattus norvegicus [1] is 3.5%; in the assay on Rattus norvegicus [2], 66%.

For `CN1CCC(=C2c3ccccc3C=Cc3ccccc32)CC1` [CYPROHEPTADINE], in the assay with Rattus norvegicus [3], the “inhibition (INH)” value was found to be 56%.

Turning to `COc1ccc2c(c1)c(CC(=O)O)c(C)n2C(=O)c1ccc(Cl)cc1` [INDOMETHACIN], the inhibition in vivo at 10 mg/kg in the assay with Rattus norvegicus [4] was 54%.
